Assays:
[1] = tested on: MCF-7 cells; experiment: Cell viability assay, MCF-7 cells (CellTiter-Glo, 168 h); format: cell-based; details: Homo sapiens, MCF7
Protocol: An in vitro cell viability assay was conducted using some Example compounds following the steps below:
1. After recovery, MCF-7 cells (obtained from the Shanghai Cell Bank of the Chinese Academy of Sciences) were cultured at 37° C., 5% CO2, and 95% humidity.
2. 8 compound solutions at different concentrations were prepared for each Example compound. 50 μL of the compound solution at each concentration was added to a 96-well black plate.
3. The cell concentration was adjusted to about 30,000 cells/mL. 100 μL of the cell suspension was added to the 96-well plate, and mixed well to a final cell density of about 3,000 cells/well.
4. The 96-well plate was incubated at 37° C., 5% CO2, and 95% humidity for 168 h, i.e., 7 days.
5. The cell survival rate was measured by the method of CellTiter-Glo® Luminescent Cell Viability Assay (Promega, Cat #G7572). The fluorescence data were read on a microplate reader (EnVision™, a multi-function microplate detector, PerkinElmer).
6. The obtained fluorescence data were analyzed using the GraphPad Prism software. The cell survival rate was calculated for each Example compound at each concentration, and the IC50 interval of each Example compound was determined.

[2] = target: T1, CDK6/CyclinD1 (Homo sapiens, UniProt Q00534); experiment: In vitro cell-free CDK6/CyclinD1 kinase activity assay (TR-FRET); format: biochemical; details: ATP at Km
T1 construct: purchased Carna 04-114
T1 sequence (Q00534 whole entry): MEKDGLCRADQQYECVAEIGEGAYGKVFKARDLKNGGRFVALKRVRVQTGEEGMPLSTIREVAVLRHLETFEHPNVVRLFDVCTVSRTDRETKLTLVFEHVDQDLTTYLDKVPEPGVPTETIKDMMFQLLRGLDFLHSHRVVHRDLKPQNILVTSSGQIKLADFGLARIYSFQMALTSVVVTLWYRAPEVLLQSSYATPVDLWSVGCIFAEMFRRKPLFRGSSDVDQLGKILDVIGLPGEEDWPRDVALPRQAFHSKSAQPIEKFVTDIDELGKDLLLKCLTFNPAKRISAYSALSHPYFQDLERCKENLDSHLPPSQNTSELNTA
T1 sequence (P24385 whole entry partner): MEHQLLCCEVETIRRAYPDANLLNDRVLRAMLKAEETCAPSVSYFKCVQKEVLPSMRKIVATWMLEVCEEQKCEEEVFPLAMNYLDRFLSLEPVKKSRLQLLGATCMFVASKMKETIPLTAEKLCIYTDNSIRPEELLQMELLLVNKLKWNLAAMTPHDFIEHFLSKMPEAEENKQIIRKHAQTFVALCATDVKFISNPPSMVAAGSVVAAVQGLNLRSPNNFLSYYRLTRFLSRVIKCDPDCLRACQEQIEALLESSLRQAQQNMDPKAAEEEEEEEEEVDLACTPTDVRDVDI
Protocol: It should be noted that the assay can also be conducted by a similar method. The assay steps in this Test Example are as follows:
The CDK6/CyclinD1 kinase activity was determined using a time-resolved fluorescence resonance energy transfer (TR-FRET) method. Measurements were performed in a reaction volume of 20 μL using 384-well assay plates. […] The reaction was stopped by adding a mixture of a peptide antibody (trade name: Cisbio, product No. 64CUSKAY) and Sa-XL665 (trade name: Cisbio, product No. 610SAXLB) diluted in HTRF KinEASE detection buffer (trade name: Cisbio, product No. 62SDBRDF, containing EDTA). After the mixture was incubated for 1 hour at room temperature, the plate was read. The TR-FRET signal was measured on a multimode plate reader (EnVision™, a multi-function microplate detector, PerkinElmer) at an excitation wavelength (λEx) of 330 nm and detection wavelengths (λEm) of 615 and 665 nm. The activity was determined by the ratio of fluorescence at 665 nm to that at 615 nm. For each compound, the enzyme activities of different concentrations of the compound were measured to determine IC50. The negative control contained no inhibitor. Two no-enzyme controls were used to determine baseline fluorescence levels. IC50 was obtained by fitting using the GraphPad 6.02 software.
8-10 concentrations were prepared for each compound, and formulated in DMSO. The stock concentration was 200× the working concentration. For example, if the working concentration was 100 nM, the corresponding concentration of the formulated stock solution was 20 μM.
In the analysis of in vitro inhibitory activity on CDK kinase, the IC50 value of each of the Example compounds and Reference Example compounds was determined.

| IC50 [1] [nM] | IC50 [2] [nM] | Structure (SMILES) |
| --- | --- | --- |
| < 500 | < 100 | CN(C)C(=O)c1cc2cnc(Nc3ccc(N4CCC5(CC4)CNC5)cn3)nn2c1-c1ccc(Cl)cc1 [Example 44] |
| 500 to 2500 | < 100 | CN(C)C(=O)c1cc2cnc(Nc3ccc(N4CCNC5(CC5)C4)cn3)nn2c1-c1ccc(Cl)cc1 [Example 45] |
| < 500 | < 100 | CN(C)C(=O)c1cc2cnc(Nc3ccc(N4CC5(CCNC5)C4)cn3)nn2c1-c1ccc(Cl)cc1 [Example 46] |
| 2500 to 10000 | < 100 | COCCOc1ccc(-c2c(C(=O)N(C)C)cc3cnc(Nc4ccc(N5CCNC6(CC6)C5)cn4)nn23)cc1 [Example 47] |
| 500 to 2500 | < 100 | COCCOc1ccc(-c2c(C(=O)N(C)C)cc3cnc(Nc4ccc(N5CC6(CCNC6)C5)cn4)nn23)cc1 [Example 49] |
| 2500 to 10000 | < 100 | COCCOc1ccc(-c2c(C(=O)N(C)C)cc3cnc(Nc4ccc(N5CCC6(CCNCC6)C5)cn4)nn23)cc1 [Example 50] |
| 500 to 2500 | 100 to 1000 | O=C1CCCN1c1cc2cnc(Nc3ccc(N4CCNCC4)cn3)nn2c1-c1ccc(Cl)cc1 [Example 51] |
| 2500 to 10000 | 100 to 1000 | O=C1CCCN1c1cc2cnc(Nc3ccc(N4CCNCC4)cn3)nn2c1C1=CCCC1 [Example 52] |
| 500 to 2500 | 100 to 1000 | COc1cc(F)ccc1-c1c(-c2cnn(C)c2)cc2cnc(Nc3ccc(N4CCNCC4)cn3)nn12 [Example 53] |
| 500 to 2500 | < 100 | Cn1cc(-c2cc3cnc(Nc4ccc(N5CCNCC5)cn4)nn3c2-c2ccncc2)cn1 [Example 54] |
| < 500 | < 100 | Cn1cc(-c2cc3cnc(Nc4ccc(N5CCNCC5)cn4)nn3c2N2CCCC2)cn1 [Example 55] |
| 500 to 2500 | < 100 | COCCOc1ccc(-c2c(C(=O)N(C)C)cc3cnc(Nc4ccc(N5CCNCC5)cn4)nn23)cc1 [Example 57] |
| 2500 to 10000 | < 100 | CN(C)C(=O)c1cc2cnc(Nc3ccc(N4CCNCC4)cn3)nn2c1-c1ccncc1 [Example 58] |
| 500 to 2500 | < 100 | COc1cc(F)ccc1-c1c(C(=O)N(C)C)cc2cnc(Nc3ccc(N4CCNCC4)cn3)nn12 [Example 59] |
| 2500 to 10000 | < 100 | CN(C)C(=O)c1cc2cnc(Nc3ccc(N4CCNCC4)cn3)nn2c1-c1ccc(O)cc1 [Example 60] |
| 2500 to 10000 | < 100 | COc1cc(F)ccc1-c1c(C(=O)N(C)C)cc2cnc(Nc3ccc(N4CC5(CNC5)C4)cn3)nn12 [Example 65] |
| 2500 to 10000 | 100 to 1000 | Cc1noc(C)c1-c1c(-c2cnn(C)c2)cc2cnc(Nc3ccc(N4CCNCC4)cn3)nn12 [Example 68] |
| 2500 to 10000 | < 100 | CN(C)C(=O)c1cc2cnc(Nc3ccc(N4CC5(CCNC5)C4)cn3)nn2c1-c1ccncc1 [Example 69] |
| 500 to 2500 | < 100 | Cn1cc(-c2cc3cnc(Nc4ccc(N5CCNCC5)cn4)nn3c2C2CCCC2)cn1 [Example 71] |
| 500 to 2500 | 100 to 1000 | FC(F)n1cc(-c2cc3cnc(Nc4ccc(N5CCNCC5)cn4)nn3c2C2=CCCC2)cn1 [Example 72] |
| 500 to 2500 | < 100 | Cn1cc(-c2cc3cnc(Nc4ccc(N5CCNCC5)cn4)nn3c2C2=CCCC2)ccc1=O [Example 73] |
| < 500 | < 100 | C1=C(c2c(-c3cn[nH]c3)cc3cnc(Nc4ccc(N5CCNCC5)cn4)nn23)CCC1 [Example 74] |
| 500 to 2500 | < 100 | C1=C(c2c(-c3cccs3)cc3cnc(Nc4ccc(N5CCNCC5)cn4)nn23)CCC1 [Example 75] |
| 2500 to 10000 | < 100 | C1=C(c2c(-c3cnoc3)cc3cnc(Nc4ccc(N5CCNCC5)cn4)nn23)CCC1 [Example 76] |
| 2500 to 10000 | < 100 | Cc1ncc(-c2cc3cnc(Nc4ccc(N5CCNCC5)cn4)nn3c2C2=CCCC2)cn1 [Example 78] |
| 2500 to 10000 | 100 to 1000 | Cn1cc(-c2cc3cnc(Nc4ccc(N5CCNCC5)cn4)nn3c2)cn1 [Example 81] |

| IC50 [1] [nM] | IC50 [2] [nM] | Structure (SMILES) |
| --- | --- | --- |
| < 500 | 100 to 1000 | Cn1cc(-c2cc3cnc(Nc4ccc(N5CCNCC5)cn4)nn3c2Br)cn1 [Example 82] |
| 500 to 2500 | 100 to 1000 | Cc1ccc(-c2cc3cnc(Nc4ccc(N5CCNCC5)cn4)nn3c2C2=CCCC2)s1 [Example 83] |
| < 500 | < 100 | C1=C(c2c(-c3cncnc3)cc3cnc(Nc4ccc(N5CCNCC5)cn4)nn23)CCC1 [Example 84] |
| < 500 | < 100 | Cc1n[nH]cc1-c1cc2cnc(Nc3ccc(N4CCNCC4)cn3)nn2c1C1=CCCC1 [Example 85] |
| < 500 | < 100 | CCn1cc(-c2cc3cnc(Nc4ccc(N5CCNCC5)cn4)nn3c2C2=CCCC2)cn1 [Example 86] |
| < 500 | 100 to 1000 | CC(C)n1cc(-c2cc3cnc(Nc4ccc(N5CCNCC5)cn4)nn3c2C2=CCCC2)cn1 [Example 87] |
| < 500 | < 100 | C1=C(c2c(-c3cccnc3)cc3cnc(Nc4ccc(N5CCNCC5)cn4)nn23)CCC1 [Example 88] |
| < 500 | < 100 | Cc1ccc(-c2cc3cnc(Nc4ccc(N5CCNCC5)cn4)nn3c2C2=CCCC2)cn1 [Example 89] |
| < 500 | < 100 | Cc1cc(-c2cc3cnc(Nc4ccc(N5CCNCC5)cn4)nn3c2C2=CCCC2)ccn1 [Example 90] |
| 2500 to 10000 | 100 to 1000 | COc1cc(F)ccc1-c1c(-c2c[nH]nc2C)cc2cnc(Nc3ccc(N4CCNCC4)cn3)nn12 [Example 91] |
| 500 to 2500 | 100 to 1000 | Cn1cc(-c2cc3cnc(Nc4ccc(N5CC6(CCNC6)C5)cn4)nn3c2C2=CCCC2)cn1 [Example 92] |
| < 500 | < 100 | Cn1cc(-c2cc3cnc(Nc4ccc(N5CCC6(CCNCC6)CC5)cn4)nn3c2C2=CCCC2)cn1 [Example 93] |
| < 500 | < 100 | COc1cc(F)ccc1-c1c(-c2cn[nH]c2)cc2cnc(Nc3ccc(N4CCNCC4)cn3)nn12 [Example 94] |
| 500 to 2500 | < 100 | C1=C(c2c(-c3cncnc3)cc3cnc(Nc4ccc(N5CCC6(CCNCC6)CC5)cn4)nn23)CCC1 [Example 96] |
| < 500 | < 100 | C1=C(c2c(-c3ccncc3)cc3cnc(Nc4ccc(N5CCNCC5)cn4)nn23)CCC1 [Example 97] |
| 500 to 2500 | < 100 | CN1CCN(c2ccc(Nc3ncc4cc(-c5cncnc5)c(C5=CCCC5)n4n3)nc2)CC1 [Example 98] |
| < 500 | < 100 | CN1CCN(c2ccc(Nc3ncc4cc(C(=O)N(C)C)c(C5=CCCC5)n4n3)nc2)CC1 [Example 99] |
| < 500 | < 100 | COc1ccc(-c2c(C(=O)N(C)C)cc3cnc(Nc4ccc(N5CCN(C)CC5)cn4)nn23)cc1 [Example 100] |
| < 500 | < 100 | [2H]C([2H])([2H])N1CCN(c2ccc(Nc3ncc4cc(C(=O)N(C)C)c(-c5ccc(OC)cc5)n4n3)nc2)CC1 [Example 101] |
| < 500 | < 100 | [2H]C([2H])([2H])N1CCN(c2ccc(Nc3ncc4cc(C(=O)N(C)C)c(C5=CCCC5)n4n3)nc2)CC1 [Example 102] |
| < 500 | < 100 | CCN1CCN(c2ccc(Nc3ncc4cc(C(=O)N(C)C)c(C5=CCCC5)n4n3)nc2)CC1 [Example 103] |
| < 500 | < 100 | [2H]C([2H])([2H])C([2H])([2H])N1CCN(c2ccc(Nc3ncc4cc(C(=O)N(C)C)c(C5=CCCC5)n4n3)nc2)CC1 [Example 104] |
| < 500 | < 100 | CN1CCN(c2ccc(Nc3ncc4cc(C(=O)N(C)C)c(C5=CCOCC5)n4n3)nc2)CC1 [Example 105] |
| < 500 | < 100 | [2H]C([2H])([2H])N1CCN(c2ccc(Nc3ncc4cc(C(=O)N(C)C)c(C5=CCOCC5)n4n3)nc2)CC1 [Example 106] |
| < 500 | < 100 | CN(C)C(=O)c1cc2cnc(Nc3ccc(N4CCNCC4)cn3)nn2c1C1=CCOCC1 [Example 107] |
| < 500 | < 100 | CN(C)C(=O)c1cc2cnc(Nc3ccc(N4CCNCC4)cn3)nn2c1-c1ccccc1 [Example 108] |

Reference: patent US20230002393A1, “CDK KINASE INHIBITOR” (BEIJING BENICALL BIOTECH CO., LTD., priority 2019, published 2023)
